For the data set the following is noted: 101.33 kPa, Liquid, Vibrating tube method.

Numbers after ± are expanded uncertainties.

What is called mass density is mass per unit of volume.

For `CC(C)CO` [2-methyl-1-propanol], the mass density (288.15 K) was 806.121 ± 0.14 kg/m3; the mass density (298.15 K) is recorded as 798.409 ± 0.14 kg/m3; the mass density (313.15 K) is on record as 786.515 ± 0.15 kg/m3; the mass density (328.15 K) was 774.113 ± 0.15 kg/m3; the mass density (338.15 K) was found to be 765.452 ± 0.15 kg/m3; the mass density (348.15 K) was determined as 756.435 ± 0.16 kg/m3.

As to `CCCCO` [butan-1-ol], the mass density runs as follows: (288.15 K) 813.604 ± 0.11 kg/m3; (298.15 K) 805.984 ± 0.11 kg/m3; (313.15 K) 794.34 ± 0.12 kg/m3; (328.15 K) 782.323 ± 0.12 kg/m3; (338.15 K) 774.032 ± 0.13 kg/m3; (348.15 K) 765.48 ± 0.13 kg/m3.

As for `CCOC(=O)CC(=O)OCC` [diethyl 1,3-propanedioate], the mass density came out at 1060.33 ± 0.061 kg/m3 (288.15 K); 1049.6 ± 0.057 kg/m3 (298.15 K); 1033.5 ± 0.051 kg/m3 (313.15 K); 1017.34 ± 0.045 kg/m3 (328.15 K); 1006.5 ± 0.042 kg/m3 (338.15 K); 995.631 ± 0.041 kg/m3 (348.15 K).

Consider `CCOC(C)=O` [ethyl acetate], for which the mass density is, setting by setting: (288.15 K) 906.547 ± 0.11 kg/m3; (298.15 K) 894.381 ± 0.12 kg/m3; (313.15 K) 875.812 ± 0.12 kg/m3; (328.15 K) 856.813 ± 0.13 kg/m3; (338.15 K) 843.858 ± 0.13 kg/m3; (348.15 K) 830.622 ± 0.14 kg/m3.

Take `CCCCCCC` [heptane]: the mass density is, setting by setting: (288.15 K) 688.254 ± 0.25 kg/m3; (298.15 K) 679.787 ± 0.25 kg/m3; (313.15 K) 666.893 ± 0.25 kg/m3; (328.15 K) 653.72 ± 0.26 kg/m3; (338.15 K) 644.767 ± 0.26 kg/m3; (348.15 K) 635.631 ± 0.26 kg/m3.

As for `CCCCCO` [pentan-1-ol], the mass density (288.15 K) amounted to 819.154 ± 0.14 kg/m3; the mass density (298.15 K) stood at 811.8 ± 0.14 kg/m3; the mass density (313.15 K) was 800.574 ± 0.14 kg/m3; the mass density (328.15 K) is given as 789.007 ± 0.15 kg/m3; the mass density (338.15 K) amounted to 781.05 ± 0.15 kg/m3; the mass density (348.15 K) came to 772.873 ± 0.15 kg/m3.

Values taken from the NIST ThermoML archive (doi:10.1016/j.fluid.2009.11.030).
